Source: PMC3878827, “Synthesis and biological characterisation of ^18F-SIG343 and ^18F-SIG353, novel and high selectivity σ2 radiotracers, for tumour imaging properties” (EJNMMI Research, 2013)

What was measured:
[1] = PET/CT imaging studies in A375 tumour-bearing mice; assay type: in vivo; conditions: 120-min PET scan
Method: The mouse was anaesthetised via inhalant isoflurane (Forthane, Abbott Laboratories, IL, USA) (5% induction, 1% to 3% maintenance in 200 mL/min oxygen). Respiration and heart rates of the animal were monitored (BioVet; m2m Imaging Corp, Cleveland, OH, USA) during the entire scanning period. The core body temperature of the animals was maintained via a temperature-controlled heating pad. The mouse was injected intravenously with 4.6 to 16.7 MBq of ^18F-SIG343 or ^18F-SIG353, with a constant mass of the unlabelled compounds of 0.06 nmol in 100 μL of saline (n = 3). A 120-min PET scan was performed on an Inveon multimodality positron emission tomography-computed tomography (PET/CT) system (Siemens Medical Solutions, Knoxville, TN, USA) followed by a 10-min CT scan on each subject for anatomical information. Image acquisition commenced simultaneously with radiotracer injection. The data was histogrammed into 25 consecutive frames, and activity volumes were reconstructed with an iterative reconstruction (OSEM/MAP) including attenuation and scatter correction, achieving a reconstructed spatial resolution of 1.5 mm. […] Regional activity data (Bq/cc) were extracted from nine selected volumes/regions of interest (VOIs/ROIs) where σ receptor distribution was reported and the tail and expressed as percentage of injected dose per cubic centimetres (%ID/cc).

[2] = test system: A375 (human amelanotic melanoma) cells; experiment: Cell uptake studies in A375 cells; assay type: cell-based
Method: A375 (human amelanotic melanoma) cells were purchased from American Type Culture Collection (Manassas, VA, USA) and cultured in RPMI-1640 medium (Sigma-Aldrich, St. Louis, MO, USA) supplemented with 10% foetal calf serum (Invitrogen, CA, USA) and 2 mM L-glutamine (Sigma). Cells were maintained in 175 cm^2 flasks in at 37°C in 5% CO2:95% atmosphere humidified incubator and grown to sub-confluent monolayers before being detached using trypsin for use in animal models.
In 24-well culture plates, 2.5 × 10^5 cells were seeded in complete medium and left to attach overnight. The following day, the number of cells per well was counted in triplicate. Before incubation with the radiotracer, the growth media was removed and the cells were washed once with warm PBS to remove all traces of growth media. ^18F-SIG343 or ^18F-SIG353 was formulated in warm PBS containing 0.1% Tween-80. Freshly prepared radiotracer (0.37 MBq in 500 μL) was added and the cells were incubated at 37°C for 2, 15, 30, 60 and 120 min. Uptake was terminated by removing the tracer solution and washing cells with ice-cold PBS. Subsequently, the cells were lysed with 500 μL of 0.2 N NaOH. The radioactivity in the cell lysate was measured with a Wallac 1480 γ-counter (PerkinElmer, MA, USA). The results were expressed as percentage of applied dose per 1 × 10^5 cells. All activities were corrected for decay. Optimal uptake time will be selected for inhibition cell uptake studies.

[3] = Biodistribution studies in A375 tumour-bearing mice; assay type: in vivo, Balb/C nude mice; conditions: for Biodistribution, Blood / Biodistribution, Brain / Biodistribution, Femur / Biodistribution, Heart / Biodistribution, Kidneys / Biodistribution, Liver / Biodistribution, Lungs / Biodistribution, Ovaries / Biodistribution, Pancreas / Biodistribution, Spleen / Biodistribution, Tumour: i.v., ± SEM, n = 5
Method: Female Balb/C nude mice aged 5 to 6 weeks old were obtained from the Animal Resource Centre (Perth, Australia). The animals were kept at a constant temperature of 22°C ± 2°C on a 12/12 h light/dark cycle with lights on at 09:00 am. Food and water were freely available. After a week of acclimatisation, mice were injected subcutaneously in the left flank with 1 × 10^6 A375 human amelanotic melanoma cells, in 100 μL of Ca^2+/Mg^2+-free phosphate buffered saline. The procedure was performed without anaesthetic. For in vivo studies, A375 tumour-bearing mice were used 26 days after tumour inoculation.
Tumour-bearing mice were used to examine the tissue distribution of radioactivity after intravenous injection into the tail vein of 1 MBq of ^18F-SIG343 or ^18F-SIG353 in 100 μL of saline. At 15, 30, 60, and 120 min post injection of the radiotracer, groups of mice (n = 5) were sacrificed by CO2 administration followed by cervical […] and dissection. Selected organs were weighed, and the radioactivity was measured using a γ-counter. The percentage of injected dose (%ID) was calculated by comparison with suitable dilutions of the injected dose. Radioactivity concentrations were expressed as percentage of injected dose per gram of wet tissue (%ID/g), assuming a uniform density of 1 g/cm^3. Data were corrected for the radioactivity decay and tail injected dose and normalised for the standard mouse body weight (20 g). The remaining activity in the carcass was also determined in order to obtain the total activity in the mouse (background activity) at each time point.
Selected tumour-to-organ (tumour-to-blood and tumour-to-muscle) uptake ratios (TORs), were calculated by dividing the tumour radioactivity concentration (%ID/g) by the radioactivity concentration in the respective organ at time t. Comparisons of organ radioactivity concentrations (%ID/g) and TORs in the biodistribution studies or %ID/cc in PET imaging studies between the two radiotracers were performed using separate unpaired, two-tailed Student's t tests, matched organs and time points.

[4] = declined after 60 min (up to 120 min)

## COc1cc2c(cc1OC)CN(CCCCCN1C(=O)c3ccc([18F])cc3C1=O)CC2 [^18F-SIG353]
[1]
  Tumour uptake by PET imaging: 1.3 %ID/cc
[2]; after 2 min, 37°C
  Cell uptake, percentage of applied dose per 1 × 10^5 cells: approximately 2%
[2]; [4]
  Cell uptake, percentage of applied dose per 1 × 10^5 cells: 2.3%
[3]; 15 min post injection
  Biodistribution, Blood: 1.2 ± 0.03 %ID/g
  Biodistribution, Brain: 4.4 ± 0.2 %ID/g
  Biodistribution, Femur: 5.3 ± 0.3 %ID/g
  Biodistribution, Heart: 4.5 ± 0.2 %ID/g
  Biodistribution, Kidneys: 23.4 ± 2.0 %ID/g
  Biodistribution, Liver: 23.5 ± 2.0 %ID/g
  Biodistribution, Lungs: 17.4 ± 0.5 %ID/g
  Biodistribution, Ovaries: 10.0 ± 0.9 %ID/g
  Biodistribution, Pancreas: 56.4 ± 4.7 %ID/g
  Biodistribution, Spleen: 15.7 ± 1.1 %ID/g
  Biodistribution, Tumour: 3.8 ± 0.3 %ID/g
[3]; 30 min post injection
  Biodistribution, Blood: 1.0 ± 0.1 %ID/g
  Biodistribution, Brain: 2.3 ± 0.1 %ID/g
  Biodistribution, Femur: 4.7 ± 0.2 %ID/g
  Biodistribution, Heart: 2.5 ± 0.1 %ID/g
  Biodistribution, Kidneys: 13.3 ± 0.8 %ID/g
  Biodistribution, Liver: 33.0 ± 1.8 %ID/g
  Biodistribution, Lungs: 8.6 ± 0.4 %ID/g
  Biodistribution, Ovaries: 11.8 ± 1.5 %ID/g
  Biodistribution, Pancreas: 72.8 ± 2.4 %ID/g
  Biodistribution, Spleen: 12.0 ± 0.6 %ID/g
  Biodistribution, Tumour: 3.8 ± 0.3 %ID/g
[3]; 60 min post injection
  Biodistribution, Blood: 0.7 ± 0.02 %ID/g
  Biodistribution, Brain: 1.3 ± 0.01 %ID/g
  Biodistribution, Femur: 3.8 ± 0.2 %ID/g
  Biodistribution, Heart: 1.7 ± 0.02 %ID/g
  Biodistribution, Kidneys: 8.7 ± 0.3 %ID/g
  Biodistribution, Liver: 32.6 ± 1.0 %ID/g
  Biodistribution, Lungs: 6.1 ± 0.1 %ID/g
  Biodistribution, Ovaries: 9.6 ± 1.5 %ID/g
  Biodistribution, Pancreas: 94.3 ± 4.2 %ID/g
  Biodistribution, Spleen: 7.7 ± 0.4 %ID/g
  Biodistribution, Tumour: 4.6 ± 0.2 %ID/g
[3]; 120 min post injection
  Biodistribution, Blood: 0.7 ± 0.03 %ID/g
  Biodistribution, Brain: 0.8 ± 0.02 %ID/g
  Biodistribution, Femur: 3.9 ± 0.1 %ID/g
  Biodistribution, Heart: 1.3 ± 0.1 %ID/g
  Biodistribution, Kidneys: 7.1 ± 0.2 %ID/g
  Biodistribution, Liver: 24.1 ± 1.4 %ID/g
  Biodistribution, Lungs: 4.7 ± 0.2 %ID/g
  Biodistribution, Ovaries: 12.2 ± 3.1 %ID/g
  Biodistribution, Pancreas: 119.2 ± 1.6 %ID/g
  Biodistribution, Spleen: 5.5 ± 0.2 %ID/g
  Biodistribution, Tumour: 4.8 ± 0.4 %ID/g
[3]; at 120 min
  Tumour-to-blood uptake ratio: eight- to ninefold

## COc1cc2c(cc1OC)CN(CCCCN1C(=O)c3ccc([18F])cc3C1=O)CC2 [^18F-SIG343]
[1]
  Tumour uptake by PET imaging: 0.9 %ID/cc
[2]; after 2 min, 37°C
  Cell uptake, percentage of applied dose per 1 × 10^5 cells: approximately 2%
[2]; between 15 and 60 min (peak/plateau)
  Cell uptake, percentage of applied dose per 1 × 10^5 cells: 2%
[2]; [4]
  Cell uptake, percentage of applied dose per 1 × 10^5 cells: 1.6%
[3]; 15 min post injection
  Biodistribution, Blood: 0.9 ± 0.1 %ID/g
  Biodistribution, Brain: 9.6 ± 0.2^ *** %ID/g
  Biodistribution, Femur: 4.5 ± 0.4 %ID/g
  Biodistribution, Heart: 5.5 ± 0.4 %ID/g
  Biodistribution, Kidneys: 26.1 ± 0.6 %ID/g
  Biodistribution, Liver: 16.0 ± 0.9^ ** %ID/g
  Biodistribution, Lungs: 30.3 ± 1.2^ *** %ID/g
  Biodistribution, Ovaries: 10.8 ± 1.8 %ID/g
  Biodistribution, Pancreas: 42.9 ± 2.8^ * %ID/g
  Biodistribution, Spleen: 14.6 ± 1.2 %ID/g
  Biodistribution, Tumour: 3.1 ± 0.5 %ID/g
[3]; 30 min post injection
  Biodistribution, Blood: 0.7 ± 0.04 %ID/g
  Biodistribution, Brain: 8.8 ± 0.6^ *** %ID/g
  Biodistribution, Femur: 4.3 ± 0.2 %ID/g
  Biodistribution, Heart: 3.5 ± 0.2^ ** %ID/g
  Biodistribution, Kidneys: 19.8 ± 0.9^ *** %ID/g
  Biodistribution, Liver: 21.9 ± 0.8^ *** %ID/g
  Biodistribution, Lungs: 17.4 ± 0.7^ *** %ID/g
  Biodistribution, Ovaries: 14.0 ± 2.2 %ID/g
  Biodistribution, Pancreas: 50.2 ± 2.0^ *** %ID/g
  Biodistribution, Spleen: 15.2 ± 1.1^ * %ID/g
  Biodistribution, Tumour: 3.0 ± 0.1^ * %ID/g
[3]; 60 min post injection
  Biodistribution, Blood: 0.6 ± 0.1 %ID/g
  Biodistribution, Brain: 7.1 ± 0.4^ *** %ID/g
  Biodistribution, Femur: 3.8 ± 0.1 %ID/g
  Biodistribution, Heart: 1.9 ± 0.04^ ** %ID/g
  Biodistribution, Kidneys: 12.0 ± 0.6^ ** %ID/g
  Biodistribution, Liver: 15.2 ± 1.1^ *** %ID/g
  Biodistribution, Lungs: 9.9 ± 0.3^ *** %ID/g
  Biodistribution, Ovaries: 13.5 ± 2.2 %ID/g
  Biodistribution, Pancreas: 64.4 ± 3.5^ *** %ID/g
  Biodistribution, Spleen: 12.8 ± 0.9^ *** %ID/g
  Biodistribution, Tumour: 3.5 ± 0.3^ * %ID/g
[3]; 120 min post injection
  Biodistribution, Blood: 0.4 ± 0.01 %ID/g
  Biodistribution, Brain: 5.2 ± 0.7^ *** %ID/g
  Biodistribution, Femur: 3.2 ± 0.1 %ID/g
  Biodistribution, Heart: 1.1 ± 0.1 %ID/g
  Biodistribution, Kidneys: 7.5 ± 0.4 %ID/g
  Biodistribution, Liver: 19.8 ± 0.9^ * %ID/g
  Biodistribution, Lungs: 5.0 ± 0.3 %ID/g
  Biodistribution, Ovaries: 11.5 ± 1.4 %ID/g
  Biodistribution, Pancreas: 61.7 ± 3.4^ *** %ID/g
  Biodistribution, Spleen: 8.5 ± 0.2^ *** %ID/g
  Biodistribution, Tumour: 3.9 ± 0.2 %ID/g
[3]; at 120 min
  Tumour-to-blood uptake ratio: eight- to ninefold
  Tumour-to-muscle uptake ratio: 4
